Entries after “also recorded” stand apart in the source; their conditions may differ. Read-outs that look alike come from different tables or passages of the source.
Tests used:
[1] = test system: RPMI-8226; assay: NCI SRB screen, RPMI-8226; details: Homo sapiens, RPMI-8226, 48 h, read-out: GI50 values
[2] = test system: UO-31; assay: NCI SRB screen, UO-31; details: Homo sapiens, UO-31, 48 h, read-out: GI50 values
[3] = test system: UACC-257; assay: NCI SRB screen, UACC-257; details: Homo sapiens, UACC-257, 48 h, read-out: GI50 values
[4] = test system: HCC-2998; assay: NCI SRB screen, HCC-2998; details: Homo sapiens, HCC 2998, 48 h, read-out: GI50 values
[5] = test system: Colon cancer cell lines; assay: NCI SRB screen, Colon panel average; details: Homo sapiens, 48 h, read-out: Log10 GI50 (converted)
[6] = test system: UACC-62; assay: NCI SRB screen, UACC-62; details: Homo sapiens, UACC-62, 48 h, read-out: GI50 values
[7] = test system: T-47D; assay: NCI SRB screen, T-47D; details: Homo sapiens, T47D, 48 h, read-out: GI50 values
[8] = test system: HOP-62; assay: NCI SRB screen, HOP-62; details: Homo sapiens, HOP-62, 48 h, read-out: GI50 values
[9] = test system: fifty six human tumor cell lines; assay: NCI human tumor cell line screen (48 h, SRB), all cell lines; details: for GI50: Homo sapiens; for anticancer activity (in words): human cancer cell lines of the NCI panel; for Log10 TGI mean graph midpoint (MG_MID): human tumor cell lines, mean over the panel, total growth inhibition
[10] = test system: MDA-MB-435; assay: NCI SRB screen, MDA-MB-435 (Breast panel); details: Homo sapiens, MDA-MB-435, 48 h, read-out: GI50 values
[11] = test system: U251; assay: NCI SRB screen, U251; details: Homo sapiens, U-251, 48 h, read-out: GI50 values
[12] = test system: HS 578T; assay: NCI SRB screen, HS 578T; details: Homo sapiens, 48 h, read-out: GI50 values
[13] = test system: CNS cancer cell lines; assay: NCI SRB screen, CNS panel average; details: Homo sapiens, 48 h, read-out: Log10 GI50 (converted)
[14] = test system: RXF 393; assay: NCI SRB screen, RXF 393; details: Homo sapiens, RXF 393, 48 h, read-out: GI50 values
[15] = test system: A498; assay: NCI SRB screen, A498; details: Homo sapiens, A498, 48 h, read-out: GI50 values
[16] = test system: MDA-MB-435; assay: NCI SRB screen, MDA-MB-435 (Melanoma panel); details: Homo sapiens, MDA-MB-435, 48 h, read-out: GI50 values
[17] = test system: SR; assay: NCI SRB screen, SR; details: Homo sapiens, 48 h, read-out: GI50 values
[18] = test system: OVCAR-3; assay: NCI SRB screen, OVCAR-3; details: Homo sapiens, OVCAR-3, 48 h, read-out: GI50 values
[19] = test system: SF-295; assay: NCI SRB screen, SF-295; details: Homo sapiens, SF-295, 48 h, read-out: GI50 values
[20] = test system: SW-620; assay: NCI SRB screen, SW-620; details: Homo sapiens, SW-620, 48 h, read-out: GI50 values
[21] = test system: CAKI-1; assay: NCI SRB screen, CAKI-1; details: Homo sapiens, CAKI-1, 48 h, read-out: GI50 values
[22] = test system: MOLT-4; assay: NCI SRB screen, MOLT-4; details: Homo sapiens, MOLT-4, 48 h, read-out: GI50 values
[23] = test system: HCT-116; assay: NCI SRB screen, HCT-116; details: Homo sapiens, HCT-116, 48 h, read-out: GI50 values
[24] = test system: IGROV1; assay: NCI SRB screen, IGROV1; details: Homo sapiens, IGROV-1, 48 h, read-out: GI50 values
[25] = test system: NCI-H23; assay: NCI SRB screen, NCI-H23; details: Homo sapiens, NCI-H23, 48 h, read-out: GI50 values
[26] = test system: Melanoma cell lines; assay: NCI SRB screen, Melanoma panel average; details: Homo sapiens, 48 h, read-out: Log10 GI50 (converted)
[27] = test system: NCIH322M; assay: NCI SRB screen, NCIH322M; details: Homo sapiens, NCI-H322M, 48 h, read-out: GI50 values
[28] = test system: Ovarian cancer cell lines; assay: NCI SRB screen, Ovarian panel average; details: Homo sapiens, 48 h, read-out: Log10 GI50 (converted)
[29] = test system: Prostate cancer cell lines; assay: NCI SRB screen, Prostate panel average; details: Homo sapiens, 48 h, read-out: Log10 GI50 (converted)
[30] = test system: SNB-19; assay: NCI SRB screen, SNB-19; details: Homo sapiens, SNB-19, 48 h, read-out: GI50 values
[31] = test system: DU-145; assay: NCI SRB screen, DU-145; details: Homo sapiens, DU-145, 48 h, read-out: GI50 values
[32] = test system: SN12C; assay: NCI SRB screen, SN12C; details: Homo sapiens, 48 h, read-out: GI50 values
[33] = test system: M14; assay: NCI SRB screen, M14; details: Homo sapiens, M14, 48 h, read-out: GI50 values
[34] = read-out: Log10 GI50 mean graph midpoint (MG_MID) (converted)

| Compound | GI50 [1] | GI50 [2] | GI50 [3] | GI50 [4] | GI50 [5] | GI50 [6] | GI50 [7] | GI50 [8] | GI50 ([9]; read-out: GI50 value range) | GI50 [9, 34] | anticancer activity (in words) [9] | Log10 TGI mean graph midpoint (MG_MID) [9] | GI50 [10] | GI50 [11] | GI50 [12] | GI50 [13] | GI50 [14] | GI50 [15] | GI50 [16] | GI50 [17] | also measured |
| --- | --- | --- | --- | --- | --- | --- | --- | --- | --- | --- | --- | --- | --- | --- | --- | --- | --- | --- | --- | --- | --- |
| Fc1ccc2[nH]c(-c3cc(-c4ccc5c(c4)OCO5)n[nH]3)nc2c1 [7g, 2-(3-(benzo[d][1,3]dioxol-5-yl)-1H-pyrazol-5-yl)-5-fluoro-1H-benzo[d]imidazole] | 1.09 µM | 2.93 µM | 1.02 µM | 5.37 µM | 5.37 µM | 4.77 µM | 3.21 µM | 8.54 µM | 0.34 to 10 µM | 4.79 µM | significant anticancer activity; also recorded: pronounced activities | −4.19 | 4.14 µM | 2.78 µM | 9.53 µM | 6.31 µM | 3.02 µM | 4.66 µM | 5.43 µM | 4.95 µM | GI50 [18]: 5.32 µM; GI50 [19]: 4.2 µM; GI50 [20]: 9.34 µM; GI50 [21]: 2.71 µM; GI50 [22]: 3.14 µM; GI50 [23]: 4.5 µM; GI50 [24]: 3.67 µM; GI50 [25]: 8.84 µM; GI50 [26]: 4.57 µM; GI50 [27]: 6.88 µM; GI50 [28]: 6.17 µM; GI50 [29]: 5.62 µM; GI50 [30]: 10 µM; GI50 [31]: 8.24 µM; GI50 [32]: 4.95 µM; GI50 [33]: 4.17 µM |
| c1ccc2[nH]c(-c3cc(-c4ccc5c(c4)OCO5)n[nH]3)nc2c1 [6g, 2-(3-(benzo[d][1,3]dioxol-5-yl)-1H-pyrazol-5-yl)-1H-benzo[d]imidazole] | 1.14 µM | 3.98 µM | 6 µM | 3.74 µM | 4.07 µM | 3.08 µM | 3.32 µM | 8.46 µM | 0.34 to 10 µM | 3.72 µM | significant anticancer activity; also recorded: pronounced activities | −4.75 | 3.57 µM | 2.37 µM | 3.8 µM | 4.27 µM | 2.36 µM | 1.7 µM | 3.12 µM | 3.37 µM | GI50 [18]: 3.21 µM; GI50 [19]: 3.24 µM; GI50 [20]: 5.87 µM; GI50 [21]: 2.74 µM; GI50 [22]: 2.68 µM; GI50 [23]: 6.36 µM; GI50 [24]: 3.66 µM; GI50 [25]: 4.47 µM; GI50 [26]: 3.02 µM; GI50 [27]: 6.29 µM; GI50 [28]: 4.37 µM; GI50 [29]: 5.13 µM; GI50 [30]: 5.92 µM; GI50 [31]: 7.27 µM; GI50 [32]: 3.73 µM; GI50 [33]: 2.19 µM |
| COc1cc(-c2cc(-c3nc4cc(Cl)c(Cl)cc4[nH]3)[nH]n2)cc(OC)c1OC [10f, 5,6-dichloro-2-(3-(3,4,5-trimethoxyphenyl)-1H-pyrazol-5-yl)-1H-benzo[d]imidazole] | 1.75 µM | 2.47 µM | 3.77 µM | 4.47 µM | 3.63 µM | 1.94 µM | 1.87 µM | 3.43 µM | 0.34 to 10 µM | 3.31 µM | significant anticancer activity; also recorded: pronounced activities | −4.88 | 3.49 µM | 2.97 µM | 4.53 µM | 3.55 µM | 3.17 µM | 4.21 µM | 3.78 µM | 3.89 µM | GI50 [18]: 4.05 µM; GI50 [19]: 3.04 µM; GI50 [20]: 4.47 µM; GI50 [21]: 3.81 µM; GI50 [22]: 2.49 µM; GI50 [23]: 2.78 µM; GI50 [24]: 3.86 µM; GI50 [25]: 3.4 µM; GI50 [26]: 2.82 µM; GI50 [27]: 3.29 µM; GI50 [28]: 4.47 µM; GI50 [29]: 3.02 µM; GI50 [30]: 5.47 µM; GI50 [31]: 4.16 µM; GI50 [32]: 3.05 µM; GI50 [33]: 3.57 µM |

Source: patent publication US9951049B2, “Pyrazole linked benzimidazole conjugates and a process for preparation thereof” (Council of Scientific & Industrial Reseach, priority 2014, dated 2018)
